From article PMC7016641, “The Role of Transient Receptor Potential Melastatin 7 (TRPM7) in Cell Viability: A Potential Target to Suppress Breast Cancer Cell Cycle” (Cancers, 2020)

Target: T1, TRPM7 (transient receptor potential melastatin 7) (Mus musculus, UniProt Q923J1)
T1 construct: murine TRPM7 (GenBank AF376052) overexpressed in HEK293 (HEK-M7)
Test: whole-cell patch clamp at +[…] mV; Fura-2 Mn2+ quench gave IC50 […]
Type: cell-based

T1 sequence (Q923J1 whole entry): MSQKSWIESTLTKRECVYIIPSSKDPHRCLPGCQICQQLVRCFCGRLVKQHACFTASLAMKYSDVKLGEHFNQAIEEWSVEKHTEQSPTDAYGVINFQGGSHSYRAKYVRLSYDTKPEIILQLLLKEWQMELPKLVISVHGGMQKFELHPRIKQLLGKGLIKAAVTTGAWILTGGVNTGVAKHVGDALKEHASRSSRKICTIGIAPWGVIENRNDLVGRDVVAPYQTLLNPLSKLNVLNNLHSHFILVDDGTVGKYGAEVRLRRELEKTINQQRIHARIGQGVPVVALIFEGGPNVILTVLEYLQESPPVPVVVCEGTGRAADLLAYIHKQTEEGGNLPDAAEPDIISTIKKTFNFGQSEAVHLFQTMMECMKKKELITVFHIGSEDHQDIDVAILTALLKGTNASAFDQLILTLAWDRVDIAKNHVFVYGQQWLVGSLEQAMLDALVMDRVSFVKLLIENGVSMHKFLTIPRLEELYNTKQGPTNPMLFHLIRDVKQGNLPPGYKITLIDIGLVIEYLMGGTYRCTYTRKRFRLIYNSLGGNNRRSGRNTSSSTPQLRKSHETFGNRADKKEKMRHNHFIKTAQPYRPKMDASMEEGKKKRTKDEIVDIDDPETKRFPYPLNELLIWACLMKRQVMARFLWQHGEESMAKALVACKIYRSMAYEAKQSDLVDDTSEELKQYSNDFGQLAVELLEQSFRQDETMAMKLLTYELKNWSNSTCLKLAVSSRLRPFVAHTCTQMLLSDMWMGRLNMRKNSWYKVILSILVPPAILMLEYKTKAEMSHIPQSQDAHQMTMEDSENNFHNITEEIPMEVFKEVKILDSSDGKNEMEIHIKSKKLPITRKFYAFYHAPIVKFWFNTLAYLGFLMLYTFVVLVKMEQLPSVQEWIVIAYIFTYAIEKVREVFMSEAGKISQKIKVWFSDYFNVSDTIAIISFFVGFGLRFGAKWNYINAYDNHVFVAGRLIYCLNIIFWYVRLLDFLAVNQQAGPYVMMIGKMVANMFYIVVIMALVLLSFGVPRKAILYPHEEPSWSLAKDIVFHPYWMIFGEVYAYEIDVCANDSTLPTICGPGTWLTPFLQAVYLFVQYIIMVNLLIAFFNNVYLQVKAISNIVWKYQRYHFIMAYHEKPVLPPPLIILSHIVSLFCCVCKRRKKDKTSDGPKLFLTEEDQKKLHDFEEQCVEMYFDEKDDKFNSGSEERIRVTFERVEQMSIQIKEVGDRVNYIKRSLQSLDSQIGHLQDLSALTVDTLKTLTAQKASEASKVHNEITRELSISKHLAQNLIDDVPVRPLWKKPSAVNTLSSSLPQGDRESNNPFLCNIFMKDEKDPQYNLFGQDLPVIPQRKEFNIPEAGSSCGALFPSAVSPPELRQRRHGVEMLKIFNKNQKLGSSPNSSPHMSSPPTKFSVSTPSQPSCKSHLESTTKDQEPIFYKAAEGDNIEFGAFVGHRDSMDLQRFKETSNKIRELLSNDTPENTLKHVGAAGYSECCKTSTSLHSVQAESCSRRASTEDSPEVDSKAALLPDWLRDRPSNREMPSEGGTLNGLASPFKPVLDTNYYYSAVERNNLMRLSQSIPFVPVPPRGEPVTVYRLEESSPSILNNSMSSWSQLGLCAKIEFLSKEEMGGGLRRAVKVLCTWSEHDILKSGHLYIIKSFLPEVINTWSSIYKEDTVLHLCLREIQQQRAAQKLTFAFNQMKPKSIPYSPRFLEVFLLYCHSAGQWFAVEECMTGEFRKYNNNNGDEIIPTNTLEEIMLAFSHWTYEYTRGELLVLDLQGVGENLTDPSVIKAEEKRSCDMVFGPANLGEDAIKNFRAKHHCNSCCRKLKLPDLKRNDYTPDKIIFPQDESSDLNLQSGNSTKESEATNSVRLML

`NCCOB(c1ccccc1)c1ccccc1` [2-APB, 2-aminoethyl diphenylborinate] was tested, and the IC50 was 120 ± 16 µM.
